The source of these data is patent US20250223268A1, “4-Methylsulfonylbenzamide Compound, Preparation Method, Herbicidal Composition And Use” (Jiangsu Flag Chemical Industry Co., Ltd., priority 2022, published 2025).

Holding throughout (assay): Greenhouse herbicidal activity assay, post-emergence
What all share (format): in vivo

The subject of experiment [1] is Cyperus iria. The following applies: Post-emergence test, rate 150 g a.i./hm^2, grade by fresh weight inhibition rate; for pest or weed control at 150 g/ha: Cyperus iria, read-out: Control efficacy grade, Cyperus iria. An excerpt:
(§1) Post-emergence: Seeds of gramineous weeds (Echinochloa crusgalli, Echinochloa crusgalli var. zelayensis, Echinochloa phyllopogon, Eleusine indica, Digitaria sanguinalis, Leptochloa chinensis, Setaria viridis, Alopecurus japonicus Steud, Beckmannia syzigachne, Polypogon fugax, Alopecurus aequalis, Lolium multiflorum, Poa annua, Aegilops tataschii, Avena fatua, Alopecurus myosuroides, Bromus japonicus), broadleaf weeds (Eclipta prostrata, Amaranthus retroflexus, Rorippa indica, Myosoton aquaticum, Veronica didyma, Galium aparine, Solanum nigrum, Xanthium sibiricum, Conyza canadensis, Sesbania cannabina, Sagittaria trifolia), and Cyperus iria (Cyperus iria, Scirpus juncoides, Cyperus difformis, etc.) were sown in plastic pots (7 cm diameter) with nutrient soil and bottom holes. Crop seeds (including Oryza sativa subsp. indica, Oryza sativa subsp. japonica, Oryza sativa L. var. Glutinosa matsum, Triticum aestivum, Zea mays, Sorghum bicolor, Setaria italica, Glycine max, Gossypium hirsutum, Brassica napus, Arachis hypogaea) were sown in plastic pots (10 cm diameter) with nutrient soil and bottom holes. After sowing, the pots were placed in the growth chamber until the plants reached the 3-6 leaf stage for foliar spraying. Post-treatment, the materials were air-dried naturally and returned to the growth chamber. Results were assessed 14-21 days later.
(§2) • A: Fresh weight inhibition rate≥80% to 100%; • B: Fresh weight inhibition rate[…] to <80%; • C: Fresh weight inhibition rate≥40% to <60%; • D: Fresh weight inhibition rate≥20% to <40%; • E: Fresh weight inhibition rate<20%; • NT: Not tested.

Experiment [2] relates to Digitaria sanguinalis. The following applies: Post-emergence test, rate 150 g a.i./hm^2, grade by fresh weight inhibition rate.
Excerpt: as §1, §2

Experiment [3] deals with Eclipta prostrata. The following applies: Post-emergence test, rate 150 g a.i./hm^2, grade by fresh weight inhibition rate; for pest or weed control at 150 g/ha: Eclipta prostrata, read-out: Control efficacy grade, Eclipta prostrata.
Excerpt: as §1, §2

Experiment [4] relates to Leptochloa chinensis. The following applies: Post-emergence test, rate 150 g a.i./hm^2, grade by fresh weight inhibition rate; for pest or weed control at 150 g/ha: Dinebra chinensis, read-out: Control efficacy grade, Leptochloa chinensis.
Excerpt: as §1, §2

Experiment [5] deals with Echinochloa crusgalli. The following applies: Post-emergence test, rate 150 g a.i./hm^2, grade by fresh weight inhibition rate.
Excerpt: as §1, §2

SMILES strings stand for the structures.

Take `Cc1nnc(NC(=O)c2ccc(S(C)(=O)=O)c([S+]([O-])Cc3ccccc3)c2Cl)o1` (racemic) [Compound 3-68]: the “Control efficacy grade, Cyperus iria” value in experiment [1] was “A (Fresh weight inhibition rate≥80% to 100%)”. Besides, in experiment [2], the “Control efficacy grade, Digitaria sanguinalis” value is listed as “B (Fresh weight inhibition rate≥260% to <80%)”. Besides, the “Control efficacy grade, Eclipta prostrata” value in experiment [3] is “A (Fresh weight inhibition rate≥80% to 100%)”. Besides, the “Control efficacy grade, Leptochloa chinensis” value in experiment [4] is listed as “A (Fresh weight inhibition rate≥80% to 100%)”.

Regarding `Cc1nnc(NC(=O)c2ccc(S(C)(=O)=O)c([S+]([O-])CCCl)c2Cl)o1` (racemic) [Compound 3-213], in experiment [1], the “Control efficacy grade, Cyperus iria” value is given as “A (Fresh weight inhibition rate≥80% to 100%)”. For the same compound, the “Control efficacy grade, Digitaria sanguinalis” value in experiment [2] is on record as “A (Fresh weight inhibition rate≥80% to 100%)”. In experiment [5], the “Control efficacy grade, Echinochloa crusgalli” value was “A (Fresh weight inhibition rate≥80% to 100%)”. Besides, the “Control efficacy grade, Leptochloa chinensis” value in experiment [4] was “A (Fresh weight inhibition rate≥80% to 100%)”.

On to `CS(=O)(=O)c1ccc(C(=O)Nc2nnc(C3CC3)o2)c(Cl)c1[S+]([O-])C1CC1` (racemic) [Compound 3-652], for which the “Control efficacy grade, Cyperus iria” value in experiment [1] is recorded as “A (Fresh weight inhibition rate≥80% to 100%)”. Besides, the “Control efficacy grade, Digitaria sanguinalis” value in experiment [2] was “A (Fresh weight inhibition rate≥80% to 100%)”. Further, the “Control efficacy grade, Eclipta prostrata” value in experiment [3] is “A (Fresh weight inhibition rate≥80% to 100%)”. Besides, in experiment [4], the “Control efficacy grade, Leptochloa chinensis” value is listed as “A (Fresh weight inhibition rate≥80% to 100%)”.

In the case of `CS(=O)(=O)c1ccc(C(=O)Nc2nnc(C3CC3)o2)c(Cl)c1[S+]([O-])C1CCCC1` (racemic) [Compound 3-662], the “Control efficacy grade, Cyperus iria” value in experiment [1] is recorded as “A (Fresh weight inhibition rate≥80% to 100%)”. In addition, in experiment [2], the “Control efficacy grade, Digitaria sanguinalis” value was “A (Fresh weight inhibition rate≥80% to 100%)”. Moreover, in experiment [3], the “Control efficacy grade, Eclipta prostrata” value is “A (Fresh weight inhibition rate≥80% to 100%)”. The “Control efficacy grade, Leptochloa chinensis” value in experiment [4] is given as “A (Fresh weight inhibition rate≥80% to 100%)”.

For the compound `CCC(C)S(=O)(=O)c1c(S(C)(=O)=O)ccc(C(=O)Nc2nonc2C)c1Cl` (racemic) [Compound 4-24], the “Control efficacy grade, Cyperus iria” value in experiment [1] is “A (Fresh weight inhibition rate≥80% to 100%)”. The “Control efficacy grade, Digitaria sanguinalis” value in experiment [2] is recorded as “A (Fresh weight inhibition rate≥80% to 100%)”. For the same compound, the “Control efficacy grade, Eclipta prostrata” value in experiment [3] is given as “A (Fresh weight inhibition rate≥80% to 100%)”. Moreover, the “Control efficacy grade, Leptochloa chinensis” value in experiment [4] is listed as “A (Fresh weight inhibition rate≥80% to 100%)”.

In the case of `CCCSc1c(S(C)(=O)=O)ccc(C(=O)N(C)c2nnnn2C)c1Cl` [Compound 1-97], the “Control efficacy grade, Cyperus iria” value in experiment [1] is “A (Fresh weight inhibition rate≥80% to 100%)”. In experiment [2], the “Control efficacy grade, Digitaria sanguinalis” value is “B (Fresh weight inhibition rate≥260% to <80%)”.

In the case of `Cn1ncnc1NC(=O)c1ccc(S(C)(=O)=O)c(S(=O)(=O)CC2CC2)c1Cl` [Compound 2-31], in experiment [1], the “Control efficacy grade, Cyperus iria” value was “A (Fresh weight inhibition rate≥80% to 100%)”. Also, in experiment [5], the “Control efficacy grade, Echinochloa crusgalli” value is “A (Fresh weight inhibition rate≥80% to 100%)”. Moreover, the “Control efficacy grade, Eclipta prostrata” value in experiment [3] was “A (Fresh weight inhibition rate≥80% to 100%)”. Also, the “Control efficacy grade, Leptochloa chinensis” value in experiment [4] was “A (Fresh weight inhibition rate≥80% to 100%)”.

Turning to `Cc1nnc(NC(=O)c2ccc(S(C)(=O)=O)c(SC(C)(C)C)c2Cl)o1` [Compound 3-32], the “Control efficacy grade, Cyperus iria” value in experiment [1] is listed as “A (Fresh weight inhibition rate≥80% to 100%)”. Moreover, the “Control efficacy grade, Digitaria sanguinalis” value in experiment [2] is recorded as “B (Fresh weight inhibition rate≥260% to <80%)”. Besides, the “Control efficacy grade, Echinochloa crusgalli” value in experiment [5] is “A (Fresh weight inhibition rate≥80% to 100%)”. For the same compound, the “Control efficacy grade, Leptochloa chinensis” value in experiment [4] is “A (Fresh weight inhibition rate≥80% to 100%)”.

For the compound `C=C(C)CS(=O)(=O)c1c(S(C)(=O)=O)ccc(C(=O)Nc2nnc(C)o2)c1Cl` [Compound 3-146], the “Control efficacy grade, Cyperus iria” value in experiment [1] was “A (Fresh weight inhibition rate≥80% to 100%)”. For the same compound, the “Control efficacy grade, Digitaria sanguinalis” value in experiment [2] is reported as “B (Fresh weight inhibition rate≥260% to <80%)”. For the same compound, the “Control efficacy grade, Eclipta prostrata” value in experiment [3] is listed as “A (Fresh weight inhibition rate≥80% to 100%)”. Moreover, the “Control efficacy grade, Leptochloa chinensis” value in experiment [4] is recorded as “A (Fresh weight inhibition rate≥80% to 100%)”.

Regarding `Cc1nnc(NC(=O)c2ccc(S(C)(=O)=O)c(SCC(F)(F)C(F)(F)F)c2Cl)o1` [Compound 3-172], the “Control efficacy grade, Cyperus iria” value in experiment [1] is “A (Fresh weight inhibition rate≥80% to 100%)”. Also, the “Control efficacy grade, Digitaria sanguinalis” value in experiment [2] is given as “A (Fresh weight inhibition rate≥80% to 100%)”. In addition, in experiment [3], the “Control efficacy grade, Eclipta prostrata” value is recorded as “A (Fresh weight inhibition rate≥80% to 100%)”. Moreover, the “Control efficacy grade, Leptochloa chinensis” value in experiment [4] is “A (Fresh weight inhibition rate≥80% to 100%)”.

With `Cc1nnc(NC(=O)c2ccc(S(C)(=O)=O)c(SC(C)C#N)c2Cl)o1` (stereo not drawn) [Compound 3-202], in experiment [1], the “Control efficacy grade, Cyperus iria” value is “B (Fresh weight inhibition rate≥260% to <80%)”. The “Control efficacy grade, Digitaria sanguinalis” value in experiment [2] was “B (Fresh weight inhibition rate≥260% to <80%)”. In addition, in experiment [5], the “Control efficacy grade, Echinochloa crusgalli” value is “A (Fresh weight inhibition rate≥80% to 100%)”. Further, the “Control efficacy grade, Leptochloa chinensis” value in experiment [4] is “A (Fresh weight inhibition rate≥80% to 100%)”.

For `CS(=O)(=O)c1ccc(C(=O)Nc2nnco2)c(Cl)c1S(=O)(=O)CCC#N` [Compound 3-377], the “Control efficacy grade, Cyperus iria” value in experiment [1] was “A (Fresh weight inhibition rate≥80% to 100%)”. The “Control efficacy grade, Echinochloa crusgalli” value in experiment [5] is “C (Fresh weight inhibition rate≥40% to <60%)”. For the same compound, in experiment [3], the “Control efficacy grade, Eclipta prostrata” value is listed as “A (Fresh weight inhibition rate≥80% to 100%)”. Besides, the “Control efficacy grade, Leptochloa chinensis” value in experiment [4] is “A (Fresh weight inhibition rate≥80% to 100%)”.

As for `CCc1nnc(NC(=O)c2ccc(S(C)(=O)=O)c(SCC(F)F)c2Cl)o1` [Compound 3-444], in experiment [2], the “Control efficacy grade, Digitaria sanguinalis” value is given as “B (Fresh weight inhibition rate≥260% to <80%)”. The “Control efficacy grade, Echinochloa crusgalli” value in experiment [5] is reported as “A (Fresh weight inhibition rate≥80% to 100%)”. The “Control efficacy grade, Leptochloa chinensis” value in experiment [4] was “A (Fresh weight inhibition rate≥80% to 100%)”.

With `C=CCSc1c(S(C)(=O)=O)ccc(C(=O)Nc2nnc(CC)o2)c1Cl` [Compound 3-454], the “Control efficacy grade, Cyperus iria” value in experiment [1] was “A (Fresh weight inhibition rate≥80% to 100%)”. The “Control efficacy grade, Digitaria sanguinalis” value in experiment [2] is recorded as “A (Fresh weight inhibition rate≥80% to 100%)”. Besides, in experiment [5], the “Control efficacy grade, Echinochloa crusgalli” value was “A (Fresh weight inhibition rate≥80% to 100%)”. Besides, in experiment [4], the “Control efficacy grade, Leptochloa chinensis” value is “A (Fresh weight inhibition rate≥80% to 100%)”.

For `CCCSc1c(S(C)(=O)=O)ccc(C(=O)Nc2nnc(C3CC3)o2)c1Cl` [Compound 3-615], the “Control efficacy grade, Cyperus iria” value in experiment [1] was “A (Fresh weight inhibition rate≥80% to 100%)”. In experiment [2], the “Control efficacy grade, Digitaria sanguinalis” value is “A (Fresh weight inhibition rate≥80% to 100%)”. For the same compound, the “Control efficacy grade, Eclipta prostrata” value in experiment [3] is listed as “A (Fresh weight inhibition rate≥80% to 100%)”. Besides, the “Control efficacy grade, Leptochloa chinensis” value in experiment [4] is given as “A (Fresh weight inhibition rate≥80% to 100%)”.

As to `CC(C)Sc1c(S(C)(=O)=O)ccc(C(=O)Nc2nnc(C3CC3)o2)c1Cl` [Compound 3-620, 2-chloro-N-(5-cyclopropyl-1,3,4-oxadiazol-2-yl)-3-(isopropylthio)-4-(methylsulfonyl)benzamide], the pest or weed control at 150 g/ha in experiment [1] was 80 to 260%; in experiment [5] (Echinochloa crus-galli, read-out: Control efficacy grade, Echinochloa crusgalli), 80 to 100%; in experiment [3], 80 to 260%; in experiment [4], 80 to 100%.

As to `CCCSc1c(S(C)(=O)=O)ccc(C(=O)Nc2nonc2C)c1Cl` [Compound 4-1, 2-chloro-N-(4-methyl-1,2,5-oxadiazol-3-yl)-4-(methylsulfonyl)-3-(propylthio)benzamide], the pest or weed control at 150 g/ha in experiment [1] lay in the range of 80 to 100%; in experiment [2] (Digitaria sanguinalis, read-out: Control efficacy grade, Digitaria sanguinalis), 80 to 100%; in experiment [3] it was 80 to 100%; in experiment [4], 80 to 100%.

For `Cc1nonc1NC(=O)c1ccc(S(C)(=O)=O)c(S(=O)(=O)C(C)C)c1Cl` [Compound 4-10], the “Control efficacy grade, Cyperus iria” value in experiment [1] is “A (Fresh weight inhibition rate≥80% to 100%)”. For the same compound, the “Control efficacy grade, Digitaria sanguinalis” value in experiment [2] is “B (Fresh weight inhibition rate≥260% to <80%)”. In addition, the “Control efficacy grade, Echinochloa crusgalli” value in experiment [5] was “A (Fresh weight inhibition rate≥80% to 100%)”. For the same compound, in experiment [4], the “Control efficacy grade, Leptochloa chinensis” value is “A (Fresh weight inhibition rate≥80% to 100%)”.
